# “Also recorded” adds a separate entry of the source.
# Tests used:
# [1] = test system: anti-dsDNA IgG binding to dsDNA antigen; assay: Inhibition ELISA, anti-dsDNA IgG binding to dsDNA antigen; set-up: species or system murine; conditions: anti-dsDNA IgG 2 µg/ml pre-incubated with serially diluted peptide (0.04 to 80 µg/ml); three independent experiments
# Protocol: (§1) Common ELISAs (for binding to dsDNA or peptide) and inhibition ELISAs were performed as previously described ([8], [35]). Briefly, the KIR ELISA was carried out by adding biotinylated KIR peptide (DTHFRTFRSHSDYRRI, 5 µg/ml) to streptavidin-coated 96-well plates. For inhibition with KIR (or ALW) peptide, anti-dsDNA IgG (2 µg/ml) was pre-incubated with serially diluted peptide (from 0.04 to 80 µg/ml), and then transferred to antigen-coated 96-well plates. Alkaline phosphatase-conjugated goat anti-mouse IgG (2 µg/ml; Southern Biotech) was used as secondary antibody. Similarly, for inhibition with anti-dsDNA IgG, the FITC-labeled JAK2 loop peptide (LPQDKEYYKVKEP, 0.2 µg/ml) was pre-incubated with serially diluted anti-dsDNA IgG (from 0.02 to 20 µg/ml) before transfer to KIR-coated plates, which were detected for fluorescein intensity under a Perkin Elmer Reader (Winpact Scientific, Irvine, CA, USA). Cell surface ELISA was performed by growing mesangial cells in 96-well plates ([8], [35]). All peptides were synthesized by Sangon Biotech Company (Shanghai, China).
# [2] = test system: anti-dsDNA IgG binding to SOCS1-KIR peptide; assay: Inhibition ELISA, anti-dsDNA IgG binding to SOCS1-KIR peptide; set-up: species or system murine; conditions: anti-dsDNA IgG 2 µg/ml pre-incubated with serially diluted peptide (0.04 to 80 µg/ml); three independent experiments
# Protocol: as §1
# [3] = test system: anti-dsDNA IgG binding to mesangial cells; assay: Inhibition cell surface ELISA, anti-dsDNA IgG binding to mesangial cells; type: cell-based, murine; conditions: anti-dsDNA IgG premixed with D-form or scrambled ALW peptide; three independent experiments
# Protocol: as §1
# mesangial cells = assay: Real-time PCR, mesangial cells; type: cell-based, murine; conditions: anti-dsDNA IgG 2 µg/ml premixed with peptide 1 µg/ml, 2 days
# Protocol: Immortal murine mesangial cells and glomerular endothelial cells (Jieqing Biotech, Wuhan, China) were cultured in RPMI 1640 medium supplemented with 10% fetal bovine serum ([8], [33]). Immortal murine proximal tubular epithelial cells (kindly provided by Dr. Cheng Pan, Wuhan University, China) were cultured in Dulbecco’s modified Eagle’s medium as described previously ([34]).
# (§2) By using a HiTrap purification kit (GE Healthcare, Port Washington, NY, USA) ([8]), anti-dsDNA IgG was purified from the culture supernatants of murine WJ31 hydridoma clone (IgG2a; Jieqing Biotech). Control murine IgG (IgG2a; Jieqing Biotech) was verified by enzyme-linked immunosorbent assay (ELISA) to determine that there was no binding to DNA antigen (data not shown). Cells were starved routinely before the 2-day stimulation of anti-dsDNA IgG or control IgG (2 µg/ml). In some experiments, mesangial cells were stimulated with anti-dsDNA IgG (2 µg/ml) that was premixed with D-form (ALWPPNLHAWVP) or scrambled (PLPHNPWVLAAW) ALW peptide (1 µg/ml). The cell viability of three types of cells was measured using PrestoBlue viability reagent (Life Technologies, Carlsbad, CA, USA).
# As previously described ([8]), total RNA was extracted from fresh tissues or cultured cells, followed by reverse transcription. The 7900HT Fast PCR System (Applied Biosystems, Carlsbad, CA, USA) was used for PCR, and SYBR Green Master Mixes (Invitrogen, Grand Island, NY, USA) was used as fluorescent dye. The sequences of primers (Jieqing Biotech) are listed in Table S2 in Supplementary Material.
# [4] = test system: glomerular endothelial cells; assay: Cell viability (PrestoBlue), glomerular endothelial cells; type: cell-based, murine; conditions: D-form ALW 1 µg/ml, 2 days
# Protocol: as §2
# Mesangial Glomerular Tubular cells endothelial epithelial
# Supplementary Figure S7. Cell viability assays of kidney cells. (A) Murine cells were cultured in vitro, and received control or anti-dsDNA IgG stimulation (2 µg/ml, 2 days). (B) Similarly, these cells were also stimulated with scrambled or D-form ALW peptide (1 µg/ml, 2 days). The cell viability was measured using PrestoBlue viability reagent. Data were from three independent experiments. Data points and error bars […]
# (also on this page, place not known: µ g/ml,2 µ g/ml,2 Cell viability (%) Cell viability (%))
# glomeruli of SCID mice = assay: Glomerular IgG deposition (IHC and IF), SCID mice; type: in vivo; conditions: i.v., anti-dsDNA IgG mixed with D-form ALW before injection, n = 5, versus anti-dsDNA IgG alone
# Source text: Renal biopsies were obtained from patients with LN (n = 7), who had serum positivity of anti-dsDNA IgG (Table S1 in Supplementary Material). The diagnosis of LN was made based on the histological features of renal biopsies. For normal human controls, sera and non-lesional tissues were taken from patients (n = 5) who underwent surgical nephrectomy due to renal cell carcinoma or renal rupture (Table S1 in Supplementary Material). There was no statistical difference in term of age between the LN patients and the controls (p > 0.05). […] The MRL/lpr and MRL/MpJ mice (female, 12 or 24 weeks old, n = 5 each group) as well as SCID mice (female, 8 weeks old, n = 5 each group) were bred in the animal facility of Xi’an Jiaotong University Health Science Center. Urine, sera, and renal tissues were harvested from MRL/lpr and MRL/MpJ mice. Proteinuria was quantitated by the Coomassie brilliant blue method ([32]). All data about MRL/lpr and MRL/MpJ mice referred to that at age of 24 weeks unless otherwise noted. These SCID mice received intravenous injections of anti-dsDNA or control IgG at a dose of 100 µg twice weekly, which lasted for 4 weeks (n = 5 each group). Then, both serum and kidney samples were collected from SCID mice. This study was carried out in accordance with the recommendations of the guidelines of the Hospital Research Ethics Committee with written informed consent from all subjects. […]
sequence,measurement,setting,value
"ALWPPNLHAWVP [D-form ALW, ALW peptide with two terminal residues A and P replaced with D-form ones]",inhibition of anti-dsDNA IgG binding to DNA antigen,[1],inherited the inhibitory property of the (natural) ALW
same,inhibition of anti-dsDNA IgG binding to SOCS1-KIR peptide,[2],inhibited
same,inhibition of anti-dsDNA IgG binding to mesangial cells,[3],inhibited
same,"CTGF mRNA expression level, ALW plus anti-dsDNA IgG",mesangial cells,significantly reduced
same,"Fn14 mRNA expression level, ALW plus anti-dsDNA IgG",mesangial cells,significantly reduced
same,"JAK2 mRNA level, ALW plus anti-dsDNA IgG",mesangial cells,decreased
same,"PDGFB mRNA expression level, ALW plus anti-dsDNA IgG",mesangial cells,significantly reduced
same,"SOCS1 mRNA expression level, ALW plus anti-dsDNA IgG",mesangial cells,did not affect
same,"STAT1 mRNA level, ALW plus anti-dsDNA IgG",mesangial cells,decreased
same,cell viability,[4],no changes
same,"glomerular IgG deposition, ALW plus anti-dsDNA IgG",glomeruli of SCID mice,less IgG deposition; also recorded: significant reduction

# — article PMC5449454, “Anti-Double-Stranded DNA IgG Participates in Renal Fibrosis through Suppressing the Suppressor of Cytokine Signaling 1 Signals” (Frontiers in Immunology, 2017)
